Values after ≈ are worked out from the molar mass of the structure shown. Counter-ions that a name gives are not always drawn.
System: Staphylococcus aureus (S. aureus FDA209P)
Assay: Sensitivity Test 1: antibacterial activity (MIC) by micro-dilution method
Type: cell-based
Settings: FDA209P
Description: Test compounds were initially dissolved in dimethylsulfoxide. Antibacterial activities (MICs) of the same compounds were determined by the micro-dilution method as recommended by the Japanese Society of Chemotherapy.
Staphylococcus aureus (S. aureus FDA209P) was used as the test organism. The bacterial cells were grown overnight at 35° C. on Mueller-Hinton agar (MHA) plates. The bacterial cells were then suspended in sterile saline and adjusted to the turbidity of a 0.5 McFarland standard. The inoculum was prepared by 10-fold dilution of this suspension. Approximately 0.005 mL aliquots of the inoculum prepared above were subsequently inoculated into Cation-adjusted Mueller-Hinton broth (CAMHB, 100 μL/well) including the test compounds for overnight incubation at 35° C.

Structure (SMILES)	MIC
O=c1cnc2ccc(F)cc2n1CCN1CCC(NCc2cc3ccccc3s2)CC1 [Example 349, 1-(2-(4-((benzo[b]thiophen-2-yl)methylamino)piperidin-1-yl)ethyl)-7-fluoroquinoxalin-2(1H)-one hydrochloride]	0.0156 µg/mL
Cc1cc(=O)n(CCN2CCC(NCc3ccc4c(c3)OCCO4)CC2)c2cc(OC(F)F)ccc12 [Example 127, 7-(difluoromethoxy)-1-(2-(4-((2,3-dihydro-1,4-benzodioxin-6-ylmethyl)amino)piperidin-1-yl)ethyl)-4-methylquinolin-2(1H)-one hydrochloride]	0.0625 µg/mL
Cc1cc(=O)n(CCN2CCC(NCc3ccc4c(c3)OCCO4)CC2)c2cc(F)ccc12 [Example 109, 1-(2-(4-((2,3-dihydro-1,4-benzodioxin-6-ylmethyl)amino)piperidin-1-yl)ethyl)-7-fluoro-4-methylquinolin-2(1H)-one hydrochloride]	0.125 µg/mL
COc1ccc2c(C)cc(=O)n(CCN3CCC(NCCSc4cccs4)CC3)c2c1 [Example 57, 7-methoxy-4-methyl-1-(2-(4-((2-(2-thienylthio)ethyl)amino)piperidin-1-yl)ethyl)quinolin-2(1H)one hydrochloride]	0.0625 µg/mL
O=c1cnc2ccc(Br)cc2n1CCN1CCC(NCc2ccc3c(c2)OCCO3)CC1 [Example 363, 1-(2-(4-((2,3-dihydro-1,4-benzodioxin-6-ylmethyl)amino)piperidin-1-yl)ethyl)-7-bromoquinoxalin-2(1H)-one hydrochloride]	0.0313 µg/mL
COc1ccc2ncc(=O)n(CCN3CCC(NCc4ccc(C)c(F)c4)CC3)c2c1 [Example 354, 1-(2-(4-(3-fluoro-4-methylbenzylamino)piperidin-1-yl)ethyl)-7-methoxyquinoxalin-2(1H)-one hydrochloride]	0.0078 µg/mL
CCc1ccc(CNC2CCN(CCn3c(=O)cc(C(=O)NC)c4ccc(OC)cc43)CC2)cc1 [Example 339, 1-(2-(4-(4-ethylbenzylamino)piperidin-1-yl)ethyl)-7-methoxy-N-methyl-2-oxo-1,2-dihydroquinoline-4-carboxamide hydrochloride]	0.0625 µg/mL
Nc1cc(=O)n(CCN2CCC(NCc3ccc4c(c3)OCCO4)CC2)c2ccccc12 [Example 97, 4-amino-1-(2-(4-((2,3-dihydro-1,4-benzodioxin-6-ylmethyl)amino)piperidin-1-yl)ethyl)-quinolin-2(1H)-one hydrochloride]	0.125 µg/mL
Cc1cc(=O)n(CCN2CCC(NCc3ccc4c(c3)OCCO4)CC2)c2cc(-n3ccnc3)ccc12 [Example 125, 1-(2-(4-((2,3-dihydro-1,4-benzodioxin-6-ylmethyl)amino)piperidin-1-yl)ethyl)-7-(1H-imidazol-1-yl)-4-methylquinolin-2(1H)-one hydrochloride]	0.0313 µg/mL
COc1ccc2ncc(=O)n(CCN3CCC(NCc4cc5c(cn4)OCCCO5)CC3)c2c1 [Example 375, hydrochloride]	0.0156 µg/mL
Cc1cc(=O)n(CCN2CCC(NCc3ccc4c(c3)OCCO4)CC2)c2cc(Cl)ccc12 [Example 107, 7-chloro-1-(2-(4-((2,3-dihydro-1,4-benzodioxin-6-ylmethyl)amino)piperidin-1-yl)ethyl)-4-methylquinolin-2(1H)-one hydrochloride]	0.0313 µg/mL
CCOc1ccc2c(C)cc(=O)n(CCN3CCC(NCc4ccc5c(c4)OCCO5)CC3)c2c1 [Example 104, 1-(2-(4-((2,3-dihydro-1,4-benzodioxin-6-ylmethyl)amino)piperidin-1-yl)ethyl)-7-ethoxy-4-methylquinolin-2(1H)-one hydrochloride]	0.0625 µg/mL
COc1ccc2ncc(=O)n(CCN3CCC(NCc4nc5c(cc4Cl)SCC(=O)N5)CC3)c2c1 [Example 355, 1-(2-(4-((7-chloro-3-oxo-3,4-dihydro-2H-pyrido[3,2-b][1,4]thiazin-6-yl)methylamino)piperidin-1-yl)ethyl)-7-methoxyquinoxalin-2(1H)-one hydrochloride]	0.0156 µg/mL
CNC(=O)c1cc(OC)cc2c1ccc(=O)n2CCN1CCC(NCc2ccc3c(c2)OCCO3)CC1 [Example 186, 1-(2-(4-((2,3-dihydro-1,4-benzodioxin-6-ylmethyl)amino)piperidin-1-yl)ethyl)-7-methoxy-N-methyl-2-oxo-1,2-dihydroquinoline-5-carboxamide hydrochloride]	0.25 µg/mL
COc1cccc2ccc(=O)n(CCN3CCC(NCc4ccc5c(c4)OCCO5)CC3)c12 [Example 244, 1-(2-(4-((2,3-dihydro-1,4-benzodioxin-6-ylmethyl)amino)piperidin-1-yl)ethyl)-8-methoxyquinolin-2(1H)-one hydrochloride]	0.0625 µg/mL
CCc1ccc(CNC2CCN(CCn3c(=O)cnc4ccc(OC)cc43)CC2)cc1 [Example 353, 1-(2-(4-(4-ethylbenzylamino)piperidin-1-yl)ethyl)-7-methoxyquinoxalin-2(1H)-one hydrochloride]	0.0156 µg/mL
Cc1cc(=O)n(CCN2CCC(NCc3ccc4c(c3)OCCO4)CC2)c2cc(OC3CC3)ccc12 [Example 129, 7-cyclopropoxy-1-(2-(4-((2,3-dihydro-1,4-benzodioxin-6-ylmethyl)amino)piperidin-1-yl)ethyl)-4-methylquinolin-2(1H)-one hydrochloride]	0.0625 µg/mL
COc1cc(CO)c2ccc(=O)n(CCN3CCC(NCc4ccc5c(c4)OCCO5)CC3)c2c1 [Example 189, 1-(2-(4-((2,3-dihydro-1,4-benzodioxin-6-ylmethyl)amino)piperidin-1-yl)ethyl)-5-hydroxymethyl-7-methoxyquinolin-2(1H)-one hydrochloride]	0.0625 µg/mL
CNC(=O)c1cc(=O)n(CCN2CCC(NCC#Cc3ccccc3)CC2)c2cc(OC)ccc12 [Example 344, 7-methoxy-N-methyl-2-oxo-1-(2-(4-(3-phenyl-2-propyn-1-ylamino)piperidin-1-yl)ethyl)-1,2-dihydroquinoline-4-carboxamide hydrochloride]	0.125 µg/mL

Same assay, conditions: S. aureus FDA209P, CAMHB, overnight incubation at 35° C., lowest concentration with virtually no growth, read-out: MIC

MIC	Structure (SMILES)
0.0625 µg/mL (≈ 0.144 µM)	COc1ccc2c(C)cc(=O)n(CCN3CCC(NCCCc4ccccc4)CC3)c2c1 [Example 39, 7-methoxy-4-methyl-1-(2-(4-((3-phenylpropyl)amino)piperidin-1-yl)ethyl)quinolin-2(1H)-one]
0.0625 µg/mL (≈ 0.11 µM)	COc1ccc2c(C(=O)Nc3ccccc3)cc(=O)n(CCN3CCC(NCc4ccc5c(c4)OCCO5)CC3)c2c1 [Example 83, 1-(2-(4-((2,3-dihydro-1,4-benzodioxin-6-ylmethyl)amino)piperidin-1-yl)ethyl)-7-methoxy-2-oxo-N-phenyl-1,2-dihydroquinoline-4-carboxamide]
0.125 µg/mL (≈ 0.251 µM)	COc1ccc2ccc(=O)n(CCCC3(C(=O)O)CCN(CCSc4cccc(F)c4)CC3)c2c1 [Example 51, 1-(2-((3-fluorophenyl)thio)ethyl)-4-(3-(7-methoxy-2-oxoquinolin-1(2H)-yl)propyl)piperidine-4-carboxylic acid]
0.0078 µg/mL	COc1ccc2ncc(=O)n(CCN3CCC(NCc4cc5sccc5s4)CC3)c2c1 [Example 360, 1-(2-(4-(((thieno[3,2-b]thiophen-2-yl)methylamino)piperidin-1-yl)ethyl)-7-methoxyquinoxalin-2(1H)-one hydrochloride]
0.25 µg/mL (≈ 0.493 µM)	CNC(=O)c1cc(=O)n(CCN2CCC(NCc3cc4c(cn3)OCCO4)CC2)c2cc(OC)ccc12 [Example 66, 1-(2-(4-((2,3-dihydro(1,4)dioxino(2,3-c)pyridin-7-ylmethyl)amino)piperidin-1-yl)ethyl)-7-methoxy-N-methyl-2-oxo-1,2-dihydroquinoline-4-carboxamide]
0.125 µg/mL (≈ 0.247 µM)	COc1ccc2c(C)cc(=O)n(CCC3(C(N)=O)CCC(NCc4ccc5c(c4)OCCO5)CC3)c2c1 (stereo not drawn) [Example 155, 4-((2,3-dihydro-1,4-benzodioxin-6-ylmethyl)amino)-1-(2-(7-methoxy-4-methyl-2-oxoquinolin-1(2H)-yl)ethyl)cyclohexanecarboxamide]
0.125 µg/mL (≈ 0.24 µM)	CCNC(=O)c1cc(=O)n(CCN2CCC(NCc3ccc4c(c3)OCCO4)CC2)c2cc(OC)ccc12 [Example 77, 1-(2-(4-((2,3-dihydro-1,4-benzodioxin-6-ylmethyl)amino)piperidin-1-yl)ethyl)N-ethyl-7-methoxy-2-oxo-1,2-dihydroquinoline-4-carboxamide]
0.0625 µg/mL (≈ 0.123 µM)	CNC(=O)C1CN(CCn2c(=O)ccc3ccc(OC)cc32)CCC1NCc1ccc2c(c1)OCCO2 (single isomer, unassigned) [Example 176, 4-((2,3-dihydro-1,4-benzodioxin-6-ylmethyl)amino)-1-(2-(7-methoxy-2-oxoquinolin-1(2H)-yl)ethyl)-N-methylpiperidine-3-carboxamide]
0.25 µg/mL (≈ 0.508 µM)	COc1ccc2c(C(N)=O)cc(=O)n(CCN3CCC(NCc4ccc5c(c4)OCCO5)CC3)c2c1 [Example 70, 1-(2-(4-((2,3-dihydro-1,4-benzodioxin-6-ylmethyl)amino)piperidin-1-yl)ethyl)-7-methoxy-2-oxo-1,2-dihydroquinoline-4-carboxamide]
0.0625 µg/mL (≈ 0.117 µM)	COc1ccc2c(C(=O)NC3CC3)cc(=O)n(CCN3CCC(NCc4ccc5c(c4)OCCO5)CC3)c2c1 [Example 79, N-cyclopropyl-1-(2-(4-((2,3-dihydro-1,4-benzodioxin-6-ylmethyl)amino)piperidin-1-yl)ethyl)-7-methoxy-2-oxo-1,2-dihydroquinoline-4-carboxamide]
0.125 µg/mL (≈ 0.27 µM)	COc1ccc2ccc(=O)n(CCN3CCC(NC(=O)c4ccc5c(c4)OCCO5)CC3)c2c1 [Example 36, N-(1-(2-(7-methoxy-2-oxoquinolin-1(2H)-yl)ethyl)piperidin-4-yl)-2,3-dihydro-1,4-benzodioxin-6-carboxamide]
